Earlier results as cited in patent US12691049B2, “Process for producing hair treatment products by mixing organic C1-C6-alkoxysilanes and alkalizing agents in specific molar ratios” (Henkel AG & Co. KGaA, priority 2021, dated 2026).

## CCN(Cc1cccc(S(=O)(=O)[O-])c1)c1ccc(C(=C2C=CC(=[N+](CC)Cc3cccc(S(=O)(=O)[O-])c3)C=C2)c2ccccc2S(=O)(=O)[O-])cc1.[Na+].[Na+] [Acid Blue 9]
25° C.
  water solubility: more than 20 wt %

## O=S(=O)([O-])c1ccc(N=Nc2c(O)ccc3ccccc23)cc1.[Na+] [Acid Orange 7, sodium salt of 4-[(2-hydroxy-1-naphthyl)azo]benzene sulphonate]
25° C.
  solubility in water: more than 7 g/L

## Nc1cc(S(=O)(=O)[O-])cc2cc(S(=O)(=O)[O-])c(N=Nc3ccccc3)c(O)c12.[Na+].[Na+] [Acid Red 33, disodium salt of 5-amino-4-hydroxy-3-(phenylazo)-naphthalene-2,7-disulfonate]
25° C.
  solubility in water: 2.5 mg/mL

## O=C([O-])c1c(Cl)c(Cl)c(Cl)c(Cl)c1-c1c2cc(Br)c(=O)c(Br)c-2oc2c(Br)c([O-])c(Br)cc12.[Na+].[Na+] [Acid Red 92, disodium salt of 3,4,5,6-tetrachloro-2-(1,4,5,8-tetrabromo-6-hydroxy-3-oxanthene-9-yl) benzoic acid]
25° C.
  solubility in water: greater than 10 g/L

## O=C([O-])C1=NN(c2ccc(S(=O)(=O)[O-])cc2)C(=O)C1N=Nc1ccc(S(=O)(=O)[O-])cc1.[Na+].[Na+].[Na+] (stereo not drawn) [Acid Yellow 23, trisodium salt of 4,5-dihydro-5-oxo-1-(4-sulfophenyl)-4-((4-sulfophenyl)azo)-1H-pyrazole-3-carboxylic acid]
At 25° C.
  solubility in water (in words): readily soluble in water

## mixture of the sodium salts of mono and sis-sulfonic acids of 2-(2-quinolyl)-1H-indene-1,3(2H)-dione [Acid Yellow 3]
25° C.
  solubility in water: 20 mg/mL
